Read-outs that look alike come from different tables or passages of the source. Non-standard residues stand in square brackets, D forms with d. Residues, ends and D or L forms follow the SMILES beside them. pT = C[C@@H](OP(=O)(O)O)[C@H](N)C(=O)O
Assays:
Cbk1^Δ730–756–Mob2 = biological target: T1, Cbk1^Δ730–756–Mob2 (Saccharomyces cerevisiae, UniProt P43563+P53894); test: biochemical; format: binding
T1 construct: His6-Cbk1^251–756 was co-expressed with GST-Mob2 (full length or 45–287); His6 (N); made in house
Text: ND, not determined. […] (PDF) Click here for additional data file.

Cbk1^251-756(F447A)-Mob2 = biological target: T2, Cbk1^251-756(F447A)-Mob2 (Saccharomyces cerevisiae, UniProt P43563+P53894, F447A); test: biochemical; format: binding
T2 construct: His6-Cbk1^251–756 was co-expressed with GST-Mob2 (full length or 45–287); His6 (N); made in house
Experimental: (§1) His6-Cbk1^251–756 was co-expressed with GST-Mob2 (full length or 45–287). Cbk1 kinase domain alone (352–756 or 352–692) was expressed as GST-Cbk1-His6. All constructs were bacterially expressed and purified on a Ni-NTA resin (Qiagen) followed by glutathione Sepharose beads (GE Biosciences). For crystallization, tags were cleaved with TEV protease followed by cation exchange chromatography on a Resource S column. All Cbk1 preparations were subsequently dialyzed into Cbk1 buffer (20 mM Tris-HCl, 150 mM NaCl, 2 mM DTT [pH 8.0]).
(§2) For FP-based binding affinity measurements, different docking peptides (pepAce2: GSGSIIVTTNSANGGYQFP; pepSSD1: TTEQSDFKFP; pepHM: IGYTYSRFDY; pepHM-P: IGYpTYSRFDY) were N-terminally (pepAce2 and pepSSD1) or C-terminally (pepHM and pepHM-P) labeled with carboxyfluorescein (CF) fluorescent dyes.
(§3) Change in the FP signal in direct binding affinity measurements was monitored as a function of increasing concentration of protein with a Synergy H4 (BioTek Instruments) plate reader in 384-well plates. The labeled peptides were at 20 nM in 20 mM Tris (pH 8.0), 100 mM NaCl, 0.05% Brij35P, 2 mM DTT. […] Subsequently, increasing amounts of unlabeled peptide were added, and the FP signal was measured as described earlier for direct titration experiments. The Kd for each unlabeled peptide interaction was determined by fitting the data to a competition binding equation. […]

Cbk1^251-756(F699A)-Mob2 = biological target: T3, Cbk1^251-756(F699A)-Mob2 (Saccharomyces cerevisiae, UniProt P43563+P53894, F699A); test: biochemical; format: binding
T3 construct: His6-Cbk1^251–756 was co-expressed with GST-Mob2 (full length or 45–287); His6 (N); made in house
Experimental: as §1, §2, §3

Cbk1^251-756-Mob2 = biological target: T4, Cbk1^251-756-Mob2 (Saccharomyces cerevisiae, UniProt P43563+P53894); test: FP direct titration, Cbk1^251-756-Mob2 (WT); format: binding
T4 construct: His6-Cbk1^251–756 was co-expressed with GST-Mob2 (full length or 45–287); His6 (N); made in house
T4 sequence (P53894 251-756): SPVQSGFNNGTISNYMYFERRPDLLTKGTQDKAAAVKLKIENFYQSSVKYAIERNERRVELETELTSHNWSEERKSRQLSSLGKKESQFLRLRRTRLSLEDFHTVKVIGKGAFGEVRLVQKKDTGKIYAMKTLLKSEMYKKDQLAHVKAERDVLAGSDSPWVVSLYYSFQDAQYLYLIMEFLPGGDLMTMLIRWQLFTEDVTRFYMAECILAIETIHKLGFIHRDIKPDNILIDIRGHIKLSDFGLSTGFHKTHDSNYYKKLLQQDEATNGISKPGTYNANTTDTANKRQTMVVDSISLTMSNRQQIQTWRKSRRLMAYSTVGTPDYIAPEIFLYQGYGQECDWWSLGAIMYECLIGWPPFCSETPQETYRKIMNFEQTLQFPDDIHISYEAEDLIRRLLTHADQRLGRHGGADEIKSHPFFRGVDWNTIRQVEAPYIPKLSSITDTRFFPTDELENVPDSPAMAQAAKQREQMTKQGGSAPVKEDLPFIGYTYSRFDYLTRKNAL
T4 sequence (P43563 1-287 partner): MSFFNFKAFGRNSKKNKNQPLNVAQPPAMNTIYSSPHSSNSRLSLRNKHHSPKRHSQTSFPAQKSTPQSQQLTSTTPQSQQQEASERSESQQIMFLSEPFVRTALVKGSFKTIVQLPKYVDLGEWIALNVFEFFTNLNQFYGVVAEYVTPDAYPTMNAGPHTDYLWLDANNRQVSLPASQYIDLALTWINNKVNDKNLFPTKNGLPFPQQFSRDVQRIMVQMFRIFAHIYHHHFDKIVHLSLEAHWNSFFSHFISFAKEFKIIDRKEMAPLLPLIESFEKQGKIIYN
Experimental: as §1, §2
Change in the FP signal in direct binding affinity measurements was monitored as a function of increasing concentration of protein with a Synergy H4 (BioTek Instruments) plate reader in 384-well plates. The labeled peptides were at 20 nM in 20 mM Tris (pH 8.0), 100 mM NaCl, 0.05% Brij35P, 2 mM DTT. The resulting binding isotherms were fit to a quadratic binding equation. The affinity of the unlabeled peptides was measured in steady-state competition experiments: 20 nM labeled reporter was mixed with protein samples in a concentration to achieve ~60%–80% complex formation. Subsequently, increasing amounts of unlabeled peptide were added, and the FP signal was measured as described earlier for direct titration experiments. The Kd for each unlabeled peptide interaction was determined by fitting the data to a competition binding equation. Titration experiments were carried out in triplicate, and the average FP signal was used for fitting the data with OriginPro 7.

Cbk1 = test: In vitro kinase assay resolved by SDS-PAGE, Ace2/Ssd1 fragments; format: biochemical, Saccharomyces cerevisiae; details: Cbk1^352–756 kinase domain (S5D)
Experimental: Kinase assays resolved by SDS-PAGE were conducted with GST-Ace2 or GST-Ssd1 fusions. Reactions contained 1–5 μM substrate, 100–250 nM Cbk1, 5 mM MnCl2, 2 mM DTT, 20 μM ATP, 10 μCi γ-^32P-ATP in Cbk1 buffer. Samples were removed at indicated time points and quenched with SDS-PAGE buffer, followed by SDS-PAGE separation. ^32P was visualized using a Storm phosphorimager (GE Biosciences) and quantified using ImageQuant software.

T3 sequence (P53894 251-756 F699A, one chain of several): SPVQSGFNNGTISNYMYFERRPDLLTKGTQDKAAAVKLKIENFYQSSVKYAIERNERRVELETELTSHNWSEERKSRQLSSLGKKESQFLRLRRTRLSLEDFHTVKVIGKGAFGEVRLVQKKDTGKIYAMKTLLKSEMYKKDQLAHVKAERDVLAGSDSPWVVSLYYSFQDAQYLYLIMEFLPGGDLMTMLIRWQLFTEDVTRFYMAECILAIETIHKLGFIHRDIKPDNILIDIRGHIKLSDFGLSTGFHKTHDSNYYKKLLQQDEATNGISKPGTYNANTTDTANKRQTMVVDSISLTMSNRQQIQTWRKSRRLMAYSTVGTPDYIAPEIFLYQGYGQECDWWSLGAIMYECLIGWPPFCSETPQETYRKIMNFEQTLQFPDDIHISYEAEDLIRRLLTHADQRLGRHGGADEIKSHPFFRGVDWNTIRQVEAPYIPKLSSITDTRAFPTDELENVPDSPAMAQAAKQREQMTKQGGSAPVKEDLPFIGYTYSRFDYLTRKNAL
T2 sequence (P53894 251-756 F447A, one chain of several): as the sequence (P53894 251-756 F699A, one chain of several) above, with F197A, A449F counted along it

## CC[C@H](C)[C@H](N)C(=O)NCC(=O)N[C@@H](Cc1ccc(O)cc1)C(=O)N[C@H](C(=O)N[C@@H](Cc1ccc(O)cc1)C(=O)N[C@@H](CO)C(=O)N[C@@H](CCCNC(=N)N)C(=O)N[C@@H](Cc1ccccc1)C(=O)N[C@@H](CC(=O)O)C(=O)N[C@@H](Cc1ccc(O)cc1)C(=O)O)[C@@H](C)OP(=O)(O)O [pepHM-P] (H-IGY[pT]YSRFDY-OH)
Cbk1^Δ730–756–Mob2
  Kd: ~6 µM
Cbk1^251-756(F447A)-Mob2
  Kd: 33 µM

## CC[C@H](C)[C@H](NC(=O)[C@H](CO)NC(=O)CNC(=O)[C@H](CO)NC(=O)CN)C(=O)N[C@H](C(=O)N[C@H](C(=O)N[C@H](C(=O)N[C@H](C(=O)N[C@@H](CC(N)=O)C(=O)N[C@@H](CO)C(=O)N[C@@H](C)C(=O)N[C@@H](CC(N)=O)C(=O)NCC(=O)NCC(=O)N[C@@H](Cc1ccc(O)cc1)C(=O)N[C@@H](CCC(N)=O)C(=O)N[C@@H](Cc1ccccc1)C(=O)N1CCC[C@H]1C(=O)O)[C@@H](C)O)[C@@H](C)O)C(C)C)[C@@H](C)CC [pepAce2] (H-GSGSIIVTTNSANGGYQFP-OH)
Cbk1^251-756(F699A)-Mob2
  Kd: 5 µM
Cbk1^251-756-Mob2; CF-labeled peptide 20 nM, Tris pH 8.0, triplicate, read-out: peptide binding affinity (table in Fig 5C)
  Kd: 5 µM
Cbk1^251-756-Mob2; labeled synthetic peptides, Cbk1–Mob2 (S5H Fig), read-out: Kd
  Kd: ~6 µM

B1: Ace2^102–306: Ace2 fragment, kinase substrate containing docking motif (protein, UniProt P21192 102-306, looked up, fragment)
chain: ENNKVSHYSKKSMSSHKRGLSGTAIFGFLGHNKTLSISSLQQSILNMSKDPQPMELINELGNHNTVKNNNDDFDHIRENDGENSYLSQVLLKQQEELRIALEKQKEVNEKLEKQLRDNQIQQEKLRKVLEEQEEVAQKLVSGATNSNSKPGSPVILKTPAMQNGRMKDNAIIVTTNSANGGYQFPPPTLISPRMSNTSINGSPSR
Cbk1
  enhancement of phosphorylation by docking motif: 100 fold

— paper PMC4428629, “The Structure of an NDR/LATS Kinase–Mob Complex Reveals a Novel Kinase–Coactivator System and Substrate Docking Mechanism” (PLoS Biology, 2015)
